Results taken from US12077503B2, “Substituted cyclic amides and their use as herbicides” (FMC CORPORATION, priority 2015, dated 2024).

Key:
Test in all cases: Test C preemergence
Type in all cases: in vivo
[1] = tested on: soybean (Glycine max); settings: for Plant response rating, Soybean: scale 0 to 100, 0 no effect, 100 complete control
Method in brief: (§1)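 Assessment: visual, 13–15 d after treatment, 0 (no effect) to 100 (complete control) relative to controls. Treatment: preemergence to seeds in loam-sand soil, or postemergence to 1- to 4-leaf plants in peat-based medium. Formulation: non-phytotoxic solvent mixture with surfactant.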

[2] = tested on: corn (Zea mays); settings: for Plant response rating, Corn: scale 0 to 100, 0 no effect, 100 complete control
Method in brief: as §1

[3] = tested on: nutsedge, yellow (yellow nutsedge, Cyperus esculentus); settings: for Plant response rating, Nutsedge, Yellow: scale 0 to 100, 0 no effect, 100 complete control
Method in brief: as §1

[4] = tested on: barnyardgrass (Echinochloa crus-galli); settings: for Plant response rating, Barnyardgrass: scale 0 to 100, 0 no effect, 100 complete control
Method in brief: as §1

[5] = tested on: blackgrass (Alopecurus myosuroides); settings: for Plant response rating, Blackgrass: scale 0 to 100, 0 no effect, 100 complete control
Method in brief: as §1

[6] = tested on: ryegrass, Italian (Italian ryegrass, Lolium multiflorum); settings: for Plant response rating, Ryegrass, Italian: scale 0 to 100, 0 no effect, 100 complete control
Method in brief: as §1

[7] = tested on: lambsquarters (Chenopodium album); settings: for Plant response rating, Lambsquarters: scale 0 to 100, 0 no effect, 100 complete control
Method in brief: as §1

[8] = tested on: ragweed (common ragweed, Ambrosia elatior); settings: for Plant response rating, Ragweed: scale 0 to 100, 0 no effect, 100 complete control
Method in brief: as §1

[9] = tested on: foxtail, giant (giant foxtail, Setaria faberii); settings: for Plant response rating, Foxtail, Giant: scale 0 to 100, 0 no effect, 100 complete control
Method in brief: as §1

[10] = tested on: velvetleaf (Abutilon theophrasti); settings: for Plant response rating, Velvetleaf: scale 0 to 100, 0 no effect, 100 complete control
Method in brief: as §1

[11] = tested on: wheat (winter wheat, Triticum aestivum); settings: for Plant response rating, Wheat: scale 0 to 100, 0 no effect, 100 complete control
Method in brief: as §1

[12] = tested on: waterhemp (common waterhemp, Amaranthus rudis); settings: for Plant response rating, Waterhemp: scale 0 to 100, 0 no effect, 100 complete control
Method in brief: as §1

[13] = tested on: oilseed rape (Brassica napus); settings: for Plant response rating, Oilseed Rape: scale 0 to 100, 0 no effect, 100 complete control
Method in brief: as §1

[14] = tested on: morningglory (Ipomoea coccinea); settings: for Plant response rating, Morningglory: scale 0 to 100, 0 no effect, 100 complete control
Method in brief: as §1

[15] = tested on: Galium (catchweed bedstraw, Galium aparine); settings: for Plant response rating, Galium: scale 0 to 100, 0 no effect, 100 complete control
Method in brief: as §1

[16] = tested on: crabgrass, large (large crabgrass, Digitaria sanguinalis); settings: for Plant response rating, Crabgrass, Large: scale 0 to 100, 0 no effect, 100 complete control
Method in brief: as §1

[17] = tested on: pigweed (Amaranthus retroflexus); settings: for Plant response rating, Pigweed: scale 0 to 100, 0 no effect, 100 complete control
Method in brief: as §1

[18] = 31 g ai/ha, 0 is no effect, 100 is complete control

O=C1NCC(c2cccc(OC(F)(F)C(F)F)c2)C1C(=O)Nc1ccccc1F (racemic) [Compound 695]
65: Plant response rating, Lambsquarters ([7]; 125 g ai/ha) | Plant response rating, Pigweed ([17]; 125 g ai/ha)
40: Plant response rating, Lambsquarters ([7]; 62 g ai/ha) | Plant response rating (scale of 0 to 100), Wheat [11, 18] | Plant response rating, Oilseed Rape ([13]; 62 g ai/ha)
50: Plant response rating (scale of 0 to 100), Galium [15, 18] | Plant response rating (scale of 0 to 100), Pigweed [17, 18]
90: Plant response rating (scale of 0 to 100), Barnyardgrass [4, 18] | Plant response rating, Barnyardgrass ([4]; 62 g ai/ha) | Plant response rating, Barnyardgrass ([4]; 125 g ai/ha) | Plant response rating, Barnyardgrass ([4]; 250 g ai/ha) | Plant response rating, Blackgrass ([5]; 125 g ai/ha) | Plant response rating, Blackgrass ([5]; 250 g ai/ha) | Plant response rating, Foxtail, Giant ([9]; 125 g ai/ha) | Plant response rating, Foxtail, Giant ([9]; 250 g ai/ha) | Plant response rating, Galium ([15]; 250 g ai/ha) | Plant response rating (scale of 0 to 100), Crabgrass, Large [16, 18] | Plant response rating, Crabgrass, Large ([16]; 62 g ai/ha)
10: Plant response rating, Velvetleaf ([10]; 62 g ai/ha) | Plant response rating, Morningglory ([14]; 250 g ai/ha)
70: Plant response rating, Corn ([2]; 125 g ai/ha) | Plant response rating, Ragweed ([8]; 62 g ai/ha) | Plant response rating, Waterhemp ([12]; 125 g ai/ha) | Plant response rating, Pigweed ([17]; 250 g ai/ha)
80: Plant response rating, Corn ([2]; 250 g ai/ha) | Plant response rating, Lambsquarters ([7]; 250 g ai/ha) | Plant response rating, Ragweed ([8]; 250 g ai/ha) | Plant response rating (scale of 0 to 100), Foxtail, Giant [9, 18] | Plant response rating, Oilseed Rape ([13]; 250 g ai/ha) | Plant response rating, Galium ([15]; 62 g ai/ha)
85: Plant response rating, Foxtail, Giant ([9]; 62 g ai/ha) | Plant response rating, Waterhemp ([12]; 250 g ai/ha) | Plant response rating, Oilseed Rape ([13]; 125 g ai/ha) | Plant response rating, Galium ([15]; 125 g ai/ha)
60: Plant response rating, Ryegrass, Italian ([6]; 62 g ai/ha) | Plant response rating, Wheat ([11]; 250 g ai/ha) | Plant response rating, Pigweed ([17]; 62 g ai/ha)
20: Plant response rating, Blackgrass ([5]; 62 g ai/ha)
35: Plant response rating (scale of 0 to 100), Ragweed [8, 18] | Plant response rating, Wheat ([11]; 125 g ai/ha)
55: Plant response rating, Velvetleaf ([10]; 250 g ai/ha) | Plant response rating (scale of 0 to 100), Waterhemp [12, 18]
5: Plant response rating, Wheat ([11]; 62 g ai/ha) | Plant response rating, Morningglory ([14]; 125 g ai/ha)
30: Plant response rating, Ryegrass, Italian ([6]; 125 g ai/ha) | Plant response rating, Ryegrass, Italian ([6]; 250 g ai/ha) | Plant response rating, Velvetleaf ([10]; 125 g ai/ha)
0: Plant response rating (scale of 0 to 100), Soybean [1, 18] | Plant response rating, Soybean ([1]; 62 g ai/ha) | Plant response rating, Soybean ([1]; 125 g ai/ha) | Plant response rating, Soybean ([1]; 250 g ai/ha) | Plant response rating (scale of 0 to 100), Corn [2, 18] | Plant response rating (scale of 0 to 100), Nutsedge, Yellow [3, 18] | Plant response rating, Nutsedge, Yellow ([3]; 62 g ai/ha) | Plant response rating, Nutsedge, Yellow ([3]; 125 g ai/ha) | Plant response rating, Nutsedge, Yellow ([3]; 250 g ai/ha) | Plant response rating (scale of 0 to 100), Blackgrass [5, 18] | Plant response rating (scale of 0 to 100), Ryegrass, Italian [6, 18] | Plant response rating (scale of 0 to 100), Velvetleaf [10, 18] | Plant response rating (scale of 0 to 100), Oilseed Rape [13, 18] | Plant response rating (scale of 0 to 100), Morningglory [14, 18] | Plant response rating, Morningglory ([14]; 62 g ai/ha)
25: Plant response rating, Corn ([2]; 62 g ai/ha) | Plant response rating (scale of 0 to 100), Lambsquarters [7, 18]
75: Plant response rating, Ragweed ([8]; 125 g ai/ha) | Plant response rating, Waterhemp ([12]; 62 g ai/ha)
95: Plant response rating, Crabgrass, Large ([16]; 125 g ai/ha) | Plant response rating, Crabgrass, Large ([16]; 250 g ai/ha)
